Results from ChEMBL document CHEMBL4354807, “Natural Product Albiziabioside A Conjugated with Pyruvate Dehydrogenase Kinase Inhibitor Dichloroacetate To Induce Apoptosis-Ferroptosis-M2-TAMs Polarization for Combined Cancer Therapy” (J Med Chem, 2019).
Active and inactive are the calls of the source. No cut-off for these calls is given here.

Tests used:
[1] = Selectivity index, ratio IC50 for cytotoxicity against human HBMEC cells assessed as reduction in cell viability after 72 hrs by MTT assay to IC50 for anticancer activity against mouse 4T1 cells assessed as reduction in cell viability after 72 hrs by MTT assay
[2] = biological target: [Pyruvate dehydrogenase (acetyl-transferring)] kinase isozyme 1, mitochondrial (Homo sapiens) (UniProt Q15118); assay: Inhibition of PDK1 (unknown origin) in plasma using PDK tide as substrate measured after 90 mins in presence of ATP by ADP-Glo luminescent kinase assay; assay type: cell-free
Mus musculus [3] = assay: Modulation of tumor immunosuppressive activity in BALB/c mouse xenografted with mouse 4T1 cells assessed as increase in IL12 expression in tumor administered intratumorally every other day for 14 days measured at 2 days post-last dose by ELISA; assay type: functional, organism-based
[4] = Cytotoxicity against human HBMEC cells assessed as reduction in cell viability after 72 hrs by MTT assay; assay type: cell-based
[5] = Toxicity in BALB/c nude mouse xenografted with human MCF7 cells assessed as effect on heart at 2 mg/kg, iv administered every 2 days for 2 weeks measured after 14 days by hematoxylin and eosin staining based histopathological analysis; assay type: organism-based; details: in vivo, 336 h
MCF7 [6] = assay: Induction of ferroptosis in human MCF7 cells assessed as cell death at 2 uM pretreated with ferroptosis inhibitor ferrostatin-1 followed by compound treatment by MTT assay; assay type: functional, cell-based
[7] = Cytotoxicity against human HBMEC cells assessed as combination index after 72 hrs by MTT assay; assay type: cell-based
4T1 [8] = assay: Reversal of immunosuppression against mouse 4T1 cells implanted in BALB/c mouse assessed as growth inhibition of distal tumor at 2 mg/kg administered intratumorally every 2 days for 2 weeks measured after 14 days; assay type: functional, organism-based
[9] = Selectivity index, ratio IC50 for cytotoxicity against human HBMEC cells assessed as reduction in cell viability after 72 hrs by MTT assay to IC50 for anticancer activity against human HCT116 cells assessed as reduction in cell viability after 72 hrs by MTT assay
4T1 [10] = assay: Induction of M2-TAM polarization in mouse 4T1 cells assessed as decrease in MRC1 protein level at 2 uM after 48 hrs by Western blot analysis relative to control; assay type: functional
MCF7 [11] = assay: Induction of apoptosis in human MCF7 cells assessed as upregulation of cytochrome C expression at 2 uM after 48 hrs by Western blot analysis relative to control; assay type: functional
Mus musculus [12] = assay: Modulation of tumor immunosuppressive activity in BALB/c mouse xenografted with mouse 4T1 cells assessed as decrease in IL10 expression in tumor administered intratumorally every other day for 14 days measured at 2 days post-last dose by ELISA; assay type: functional, organism-based
MCF7 [13] = assay: Induction of apoptosis in human MCF7 cells assessed as early apoptotic cells at 2 uM after 24 hrs by Annexin V-FITC/propidium iodide staining-based flow cytometric analysis (reference value: 3.53 %); assay type: functional
MCF7 [14] = assay: Induction of metabolic reversal from aerobic glycolysis to oxidative phosphorylation in human MCF7 cells assessed as effect on extracellular acidification rate at 2 uM pretreated for 4 hrs followed by glucose addition after 25 mins followed by subsequent addition of oligomycin A after 50 mins followed by 2-DG addition after 80 mins by seahorse XF24 extracellular flux analyzer assay; assay type: functional, cell-based
[15] = Toxicity in BALB/c nude mouse xenografted with human MCF7 cells assessed as effect on body weight at 2 mg/kg, iv administered every 2 days for 2 weeks measured after 14 days; assay type: organism-based; details: in vivo, 336 h
MCF7 [16] = assay: Induction of apoptosis in human MCF7 cells assessed as viable cells at 2 uM after 24 hrs by Annexin V-FITC/propidium iodide staining-based flow cytometric analysis (reference value: 93.39 %); assay type: functional; details: MCF7, 24 h, read-out: Activity
MCF7 [17] = assay: Induction of apoptosis in human MCF7 cells assessed as late apoptotic cells at 2 uM after 24 hrs by Annexin V-FITC/propidium iodide staining-based flow cytometric analysis (reference value: 2.97 %); assay type: functional
[18] = Toxicity in BALB/c nude mouse xenografted with human MCF7 cells assessed as effect on liver at 2 mg/kg, iv administered every 2 days for 2 weeks measured after 14 days by hematoxylin and eosin staining based histopathological analysis; assay type: organism-based; details: in vivo, 336 h
MCF7 [19] = assay: Inhibition of glycolysis in human MCF7 cells assessed as reduction in intracellular lactate level at 2 uM after 6 hrs by microplate reader assay; assay type: functional, cell-based
MCF7 [20] = assay: Induction of apoptosis in human MCF7 cells assessed as necrotic cells at 2 uM after 24 hrs by Annexin V-FITC/propidium iodide staining-based flow cytometric analysis (reference value: 0.10 %); assay type: functional
MCF7 [21] = assay: Anticancer activity against human MCF7 cells overexpressing PDK assessed as reduction in cell viability after 72 hrs by MTT assay; assay type: functional, cell-based; details: MCF7, 72 h
Mus musculus [22] = assay: Modulation of tumor immunosuppressive activity in BALB/c mouse xenografted with mouse 4T1 cells assessed as increase in TNFalpha expression in serum administered intratumorally every other day for 14 days measured at 2 days post-last dose by ELISA; assay type: functional, organism-based
[23] = biological target: [Pyruvate dehydrogenase (acetyl-transferring)] kinase isozyme 1, mitochondrial (Homo sapiens) (UniProt Q15118); assay: Inhibition of PDK1 (unknown origin) in PBS buffer using PDK tide as substrate at pH 7.4 measured after 90 mins in presence of ATP by ADP-Glo luminescent kinase assay
MCF7 [24] = assay: Induction of ferroptosis in human MCF7 cells assessed as cell death at 2 uM pretreated with exogenous iron Fe2+ followed by compound treatment by MTT assay; assay type: functional, cell-based
MCF7 [25] = assay: Induction of mitochondrial dysfunction in human MCF7 cells assessed as cell population with mitochondrial membrane potential collapse at 2 uM after 24 hrs by JC1 staining-based FACScalibur flow cytometry analysis (reference value: 2.74 %); assay type: functional
MCF7 [26] = assay: Antitumor activity against human MCF7 cells xenografted in BALB/c nude mouse assessed as suppression of tumor progression at 2 mg/kg, iv administered every two days for two weeks measured after 14 days relative to control; assay type: functional
[27] = Drug metabolism assessed as carboxylesterase (unknown origin)-mediated compound cleavage at aniline-amide bond after 2 hrs by HPLC analysis; assay type: ADME; details: human
4T1 [28] = assay: Synergistic anticancer activity against mouse 4T1 cells expressing assessed as combination index after 72 hrs by MTT assay; assay type: functional
[29] = Selectivity index, ratio IC50 for cytotoxicity against human LO2 cells assessed as reduction in cell viability after 72 hrs by MTT assay to IC50 for anticancer activity against human MCF7 cells assessed as reduction in cell viability after 72 hrs by MTT assay; assay type: toxicity, cell-based; details: LO2 cells versus MCF7 cells, read-out: Ratio IC50
[30] = Toxicity in BALB/c nude mouse xenografted with human MCF7 cells assessed as effect on ALP level in blood at 2 mg/kg, iv administered every 2 days for 2 weeks measured after 14 days; assay type: organism-based; details: in vivo, 336 h
4T1 [31] = assay: Induction of M2-TAM polarization in mouse 4T1 cells assessed as decrease in MRC1 mRNA expression at 2 uM after 48 hrs by Western blot analysis relative to control; assay type: functional
A-375 = assay: Synergistic anticancer activity against human A375 cells expressing assessed as combination index after 72 hrs by MTT assay; assay type: functional
MCF7 [32] = assay: Induction of mitochondrial dysfunction in human MCF7 cells assessed as cell population with intact mitochondrial membrane potential at 2 uM after 24 hrs by JC1 staining-based FACScalibur flow cytometry analysis (reference value: 97%); assay type: functional
[33] = Selectivity index, ratio IC50 for cytotoxicity against human LO2 cells assessed as reduction in cell viability after 72 hrs by MTT assay to IC50 for anticancer activity against mouse 4T1 cells assessed as reduction in cell viability after 72 hrs by MTT assay

CC1(C)CC[C@]2(C(=O)O)CC[C@]3(C)C(=CC[C@@H]4[C@@]5(C)CC[C@H](O[C@@H]6O[C@H](CO[C@@H]7OC[C@H](O)[C@H](O)[C@H]7O)[C@@H](O)[C@H](O)[C@H]6NC(=O)C(Cl)Cl)C(C)(C)[C@@H]5CC[C@]43C)[C@@H]2C1
Ratio IC50 [1]: 29.16 | inhibition [2]: inactive | Activity (Mus musculus [3]): Active | IC50 [4]: 38.2 µM | Activity [5]: Non-Toxic | Activity (MCF7 [6]): inactive | CI [7]: 1.41 | Activity (4T1 [8]): Active | Ratio IC50 [9]: 9.87 | fold change (FC) (4T1 [10]): 3.4 | fold change (FC) (MCF7 [11]): 4.4 | Activity (Mus musculus [12]): Active | Activity (MCF7 [13]): 25.16% | Activity (MCF7 [14]): Active | Activity [15]: Non-Toxic | viability at 2 µM (MCF7 [16]): 47% | Activity (MCF7 [17]): 22.92% | Activity [18]: Non-Toxic | inhibition (MCF7 [19]): Active | Activity (MCF7 [20]): 4.86% | IC50 (MCF7 [21]): 430 nM | Activity (Mus musculus [22]): Active | inhibition [23]: inactive | Activity (MCF7 [24]): Active | Activity (MCF7 [25]): 46.39% | Activity (MCF7 [26]): 100% | Drug metabolism [27]: Metabolite_Detected | CI (4T1 [28]): 0.09 | selectivity ratio at 72 h [29]: 124 | Activity [30]: Non-Toxic | fold change (FC) (4T1 [31]): 3.4 | CI (A-375): 0.7 | Activity (MCF7 [32]): 53.38% | Ratio IC50 [33]: 40.56
